Tests used:
[1] = system: Megoura viciae (Vetch Aphid); test: Test 1(b): spray of infested tic bean plants, Megoura viciae; type: in vivo; details: at 50 ppm, 2 days, score 0-3 per replicate, 4 replicates (maximum 12)
Method: (§1) One or more dilutions of the compounds to be tested were made in 50% aqueous acetone.
(b) Megoura viciae (Vetch Aphid)
(§2) Potted tic bean plants previously infected with mixed stages of Megoura were sprayed to run-off using a laboratory turntable sprayer. Treated plants were held in a greenhouse for 2 days and were assessed for aphid mortality using a scoring system, judging the response in comparison with plants treated with 50% aqueous acetone alone, as controls. Each treatment was replicated 4 times.

[2] = system: Spodoptera littoralis (Egyptian Cotton Worm); test: Test 2: leaf disc spray test, Spodoptera littoralis larvae; type: in vivo; details: foliar, application of 500 ppm, 2nd instar larvae on French bean leaf discs, sprayed
Excerpt: One or more of the dilutions of the compounds to be tested were made in 50% aqueous acetone.
Test species: Spodoptera littoralis (Egyptian Cotton Worm)
French bean leaf discs were set in agar in petri dishes and infected with 5 2nd instar larvae. Four replicate dishes were assigned to each treatment and were sprayed under a Potter Tower with the appropriate test dilution. After 2 days, live larvae were transferred to similar dishes containing untreated leaves set in agar. Two or three days later, the dishes were removed from the constant temperature (25° C.) room in which they had been held and the mean percentage mortalities of larvae were determined.

[3] = system: Phaedon cochleariae (Mustard Beetle); test: Test 3 a): leaf disc spray test, Phaedon cochleariae larvae; type: in vivo; details: Phaedon cochleariae, foliar, read-out: Phaedon % m 10 ppm
How it was run: (§3)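 Compounds were diluted in 50% aqueous acetone and sprayed in a Potter Tower onto turnip leaf discs in agar, each infested with 10 larvae (2nd instar Plutella, 3rd instar Phaedon), with four replicates per treatment. Mean percentage larval mortality was scored 4–5 days later at 25 °C.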

[4] = system: larvae of Rhipicephalus appendiculatus; test: Test 4: tick larvae on guinea-pigs given subcutaneous injections; type: in vivo; details: for percentage survival through moulting of engorged tick larvae: recovered ticks kept at 23° C. for 14 to 21 days; for Result: ticks recovered / number of engorged ticks / Result: ticks recovered / engorgement: 4 subcutaneous injections to guinea-pigs, about 100 hours after infestation
Method: Some 20 larvae of Rhipicephalus appendiculatus were placed in plastic capsules attached to the shaved flank of guinea-pigs. After 3 hours and then at 23 hourly intervals, the guinea-pigs were given a total of 4 subcutaneous injections of the test compound. Approximately 100 hours after infestation, the guinea-pigs were killed and the engorged tick larvae recovered, counter and kept at 23° C. in a humidity cabinet for 14 to 21 days. After this period, the percentage survival through moulting was assessed.

[5] = system: Plutella xylostella (Diamond-back Moth); test: whole plant or invertebrate; type: in vivo; details: foliar
How it was run: as §3

[6] = system: Megoura viciae (Vetch Aphid); test: Test 3 b): spray of infested tic bean plants, Megoura viciae; type: in vivo
Method: as §1
b) Megoura viciae (Vetch Aphid)
as §2, with “controls.” for “controls. Each treatment was replicated 4 times.”

[7] = Dose 2.5 mg/kg at each repetition
[8] = Dose 3 mg/kg at each repetition
[9] = Dose 4 mg/kg at each repetition
[10] = Dose 5 mg/kg at each repetition

For `N#Cc1nn(-c2c(Cl)cc(C(F)(F)F)cc2Cl)c(N)c1SC(Cl)(Cl)Cl` [Compound 11, 5-Amino-3-cyano-1-(2,6-dichloro-4-trifluoromethylphenyl)-4-trichloromethylthiopyrazole], the “score against all stages of Megoura viciae” value (“score against all stages” below) [1] was 7/12.

With `CC(C)[S+]([O-])c1c(C#N)nn(-c2c(Cl)cc(C(F)(F)F)cc2Cl)c1N` (stereo not shown) [Compound 58, 5-Amino-3-cyano-1-(2,6-dichloro-4-trifluoromethylphenyl)-4-isopropylsulphinylpyrazole] the “score against all stages” value [1] was 7/12.

With `CCCSc1c(C#N)nn(-c2c(Cl)cc(C(F)(F)F)cc2Cl)c1N` [Compound 71, 5-Amino-3-cyano-1-(2,6-dichloro-4-trifluoromethylphenyl)-4-propylthiopyrazole] the “score against all stages” value [1] was 7/12.

For `CC(C)Sc1c(C#N)nn(-c2c(Cl)cc(C(F)(F)F)cc2Cl)c1N` [Compound 72, 5-Amino-3-cyano-1-(2,6-dichloro-4-trifluoromethylphenyl)-4-isopropylthiopyrazole], the “score against all stages” value [1] was 7/12.

With `CC(C)CSc1c(C#N)nn(-c2c(Cl)cc(C(F)(F)F)cc2Cl)c1N` [Compound 73, 5-Amino-3-cyano-1-(2,6-dichloro-4-trifluoromethylphenyl)-4-(2-methylpropylthio)pyrazole] the “score against all stages” value [1] was 7/12.

In the case of `CCC(C)Sc1c(C#N)nn(-c2c(Cl)cc(C(F)(F)F)cc2Cl)c1N` (stereo not shown) [Compound 74, 5-Amino-3-cyano-1-(2,6-dichloro-4-trifluoromethylphenyl)-4-(1-methylpropylthio)pyrazole], the “score against all stages” value [1] is reported as 7/12.

With `C=CCSc1c(C#N)nn(-c2c(Cl)cc(C(F)(F)F)cc2Cl)c1N` [Compound 75, 4-Allylthio-5-amino-3-cyano-1-(2,6-dichloro-4-trifluoromethylphenyl)pyrazole] the “score against all stages” value [1] was 7/12.

For `CC(=O)Nc1c([N+](=O)[O-])c(Br)nn1-c1c(Cl)cc(C(F)(F)F)cc1Cl` [Compound 102, 5-Acetamido-3-bromo-1-(2,6-dichloro-4-trifluoromethylphenyl)-4-nitropyrazole], the mortality at 500 ppm [2] was ≥ 70%.

With `CC(=O)Nc1c([N+](=O)[O-])c(Cl)nn1-c1c(Cl)cc(C(F)(F)F)cc1Cl` [Compound 103, 5-Acetamido-3-chloro-1-(2,6-dichloro-4-trifluoromethylphenyl)-4-nitropyrazole] the mortality at 500 ppm [2] was ≥ 70%.

For `CC(=O)Nc1c([N+](=O)[O-])c(C#N)nn1-c1c(Cl)cc(C(F)(F)F)cc1Cl` [Compound 104, 5-Acetamido-3-cyano-1-(2,6-dichloro-4-trifluoromethylphenyl)-4-nitropyrazole], the mortality at 500 ppm [2] was ≥ 70%.

In the case of `N#Cc1c(C(F)(F)F)nn(-c2c(Cl)cc(C(F)(F)F)cc2Cl)c1N` [Compound 113, 5-Amino-4-cyano-1-(2,6-dichloro-4-trifluoromethylphenyl)-3-trifluoromethylpyrazole], the pest or weed control at 10 ppm [3] is reported as 100%, the “percentage survival through moulting of engorged tick larvae” value (“percentage survival through moulting” below) ([4]; Dose 1.0 mg/kg at each repetition) is reported as “only 47.9 percent survived” and the “percentage survival through moulting” value [4, 7] is reported as “only 30.0 percent survived”. For the same molecule, the “Result: ticks recovered / number of engorged ticks” value [4, 8] was “reduced”, the “percentage survival through moulting” value [4, 8] was 8.3% and the “Result: ticks recovered / engorgement” value [4, 9] was “No ticks recovered”. For the same molecule, the “Result: ticks recovered / engorgement” value [4, 10] was “No ticks recovered”, the mortality at 500 ppm ([5]; read-out: mortality of larvae of Plutella xylostella) was 100% and the mortality at 50 ppm ([6]; Megoura viciae, read-out: mortality of Megoura viciae) was 100%. The “score from 4 replicates, Megoura viciae” value ([6]; Test 3 method (b), application of 50 ppm, score 0-3 per replicate, maximum 12) was 12.

In the case of `CC(=O)Nc1c(C#N)c(C#N)nn1-c1c(Cl)cc(C(F)(F)F)cc1Cl` [Compound 120, 5-Acetamido-1-(2,6-dichloro-4-trifluoromethylphenyl)-3,4-dicyanopyrazole], the “percentage survival through moulting” value [4, 7] is reported as “only 62.5 percent survived”, the “Result: ticks recovered / number of engorged ticks” value [4, 8] is reported as “Less than five engorged ticks” and the “Result: ticks recovered / engorgement” value [4, 9] is reported as “No ticks recovered”. The “Result: ticks recovered / engorgement” value [4, 10] was “No ticks recovered”.

In the case of `CC(=O)Nc1c(C#N)c(C(F)(F)F)nn1-c1c(Cl)cc(C(F)(F)F)cc1Cl` [Compound 133, 5-Acetamido-4-cyano-1-(2,6-dichloro-4-trifluoromethylphenyl)-3-trifluoromethylpyrazole], the pest or weed control at 10 ppm [3] is reported as 100%, the “Result: ticks recovered / engorgement” value [4, 7] is reported as “No ticks recovered” and the “Result: ticks recovered / engorgement” value [4, 10] is reported as “No ticks recovered”. For the same molecule, the “Result: ticks recovered / engorgement” value ([4]; Dose 15 mg/kg at each repetition) was “No ticks recovered” and the mortality at 100 ppm ([5]; read-out: Plutella % mortality at 100 ppm) was 21%.

For `CC(C)(C)C(=O)Nc1c(C#N)c(C#N)nn1-c1c(Cl)cc(C(F)(F)F)cc1Cl` [Compound 134, 1-(2,6-Dichloro-4-trifluoromethylphenyl)-3,4-dicyano-5-(2,2-dimethylpropionamido)-pyrazole], the “Result: ticks recovered / engorgement” value [4, 10] was “Less than five engorged ticks” and the “Result: ticks recovered / engorgement” value ([4]; Dose 10 mg/kg at each repetition) was “No ticks recovered”.

For `CC(=O)c1cn(-c2c(Cl)cc(C(F)(F)F)cc2Cl)nc1C(F)(F)F` [Compound 215, 4-Acetyl-1-(2,6-dichloro-4-trifluoromethylphenyl)-3-trifluoromethylpyrazole], the melting point was 134 °C.

In the case of `CC[S+]([O-])c1c(C)nn(-c2c(Cl)cc(C(F)(F)F)cc2Cl)c1N` (stereo not shown) [Compound 218, 5-Amino-1-(2,6-dichloro-4-trifluoromethylphenyl)-4-ethylsulphinyl-3-methylpyrazole], the melting point is reported as 157 to 158 °C.

Molecule `CCS(=O)(=O)c1c(C)nn(-c2c(Cl)cc(C(F)(F)F)cc2Cl)c1N` [Compound 222, 5-Amino-1-(2,6-dichloro-4-trifluoromethylphenyl)-4-ethylsulphonyl-3-methylpyrazole] has a melting point of 193 °C.

Molecule `CCCS(=O)(=O)c1c(C)nn(-c2c(Cl)cc(C(F)(F)F)cc2Cl)c1N` [Compound 223, 5-Amino-1-(2,6-dichloro-4-trifluoromethylphenyl)-3-methyl-4-propanesulphonylpyrazole] has a melting point of 145.5 to 147 °C.

In the case of `CCCSc1c(C)nn(-c2c(Cl)cc(C(F)(F)F)cc2Cl)c1N` [Compound 227, 5-Amino-1-(2,6-dichloro-4-trifluoromethylphenyl)-4-n-propylthio-3-methylpyrazole], the melting point is reported as 100 to 102 °C.

Molecule `N#CSc1c(C(F)(F)F)nn(-c2c(Cl)cc(C(F)(F)F)cc2Cl)c1N` [Compound 230, 5-Amino-1-(2,6-dichloro-4-trifluoromethylphenyl)-4-thiocyanato-3-trifluoromethylpyrazole] has a melting point of 49 to 50 °C.

`Cc1nn(-c2c(Cl)cc(C(F)(F)F)cc2Cl)c(N)c1SC#N` [Compound 231, 5-Amino-1-(2,6-dichloro-4-trifluoromethylphenyl)-3-methyl-4-thiocyanatopyrazole] gave a melting point of 133.5 °C.

For `CS(=O)(=O)c1cc(Cl)c(-n2nc(C(F)(F)F)c(C#N)c2N)c(Cl)c1` [Compound 232, 5-Amino-4-cyano-1-(2,6-dichloro-4-methanesulphonylphenyl)-3-trifluoromethylpyrazole], the melting point was 270 to 272 °C.

`Cc1nn(-c2c(Cl)cc(C(F)(F)F)cc2Cl)c(N)c1SC(Cl)(Cl)Cl` [Compound 233, 5-Amino-1-(2,6-dichloro-4-trifluoromethylphenyl)-3-methyl-4-trichloromethylthiopyrazole] gave a melting point of 156 °C.

`N#Cc1c(C(F)(F)F)nn(-c2c(Cl)cc(S(=O)(=O)C(F)(F)F)cc2Cl)c1[N+](=O)[O-]` [Compound 234, 4-Cyano-1-(2,6-dichloro-4-trifluoromethanesulphonylphenyl)-5-nitro-3-trifluoromethylpyrazole] gave a melting point of 168 to 169 °C.

For `FC(F)c1cn(-c2c(Cl)cc(C(F)(F)F)cc2Cl)nc1C(F)(F)F` [Compound 235, 1-(2,6-Dichloro-4-trifluoromethylphenyl)-4-difluoromethyl-3-trifluoromethylpyrazole], the melting point was 88 to 90 °C.

`Cc1c(C(F)(F)F)nn(-c2c(Cl)cc(C(F)(F)F)cc2Cl)c1N` [Compound 236, 5-Amino-1-(2,6-dichloro-4-trifluoromethylphenyl)-4-methyl-3-trifluoromethylpyrazole] gave a melting point of 97 to 100 °C.

From patent publication US6372774B1, “Derivatives of N-phenylpyrazoles” (Rhone-Poulenc Agriculture Ltd., priority 1985, dated 2002)
